Assay results published in patent US20040115801A1, “Model epithelial cell cultures” (KINETANA GROUP INC., priority 2002, published 2004).
Where two headings read alike, the source gives them in different places.

What was measured:
[1] = test system: cell layer of the invention; experiment: Ginkgo extract ingredient profiles, apical vs basal side of the cell layer; format: in vitro ADME, human
Description: FIG. 8. Representative chromatogram of intact flavonol glycosides determined in fluid from the apical side of the cell layer 60 minutes after application of standardized ginkgo extract (equivalent of 10 mg extract).
FIG. 9. Representative chromatogram of intact flavonol glycosides determined in fluid from the basal side of the cell layer 60 minutes after application of standardized ginkgo extract (equivalent of 10 mg extract).
FIG. 10. Representative chromatogram of ginkgolides determined in fluid from the apical side of the cell membrane 60 minutes after application of standardized ginkgo extract (equivalent of 20 mg extract).
FIG. 11. Representative chromatogram of ginkgolides determined in fluid from the basal side of the cell layer 60 minutes after application of standardized ginkgo extract (equivalent of 400 mg extract).
In some embodiments, compositions for processing in accordance with the methods of the invention may include natural substances, such as crude extracts or formulations from natural products such as plants, which may be dissolved or suspended in an aqueous solution, such as a pH buffered solution or an artificial intestinal fluid. In alternative embodiments, a sample of these substances may be treated with artificial gastric juices to test prior to processing with the cell layers of the invention, for example to test for potential decomposition of ingredients under acidic conditions. In some embodiments, a known concentration of the solution or composition for processing, in either buffered solution or artificial intestinal fluid, may be applied to the apical or first side of the cell layer (membrane). Subsequently, one or more samples may be collected from the basal or second side of the cell layer, which may for example contain a cell culture medium or human plasma or components of human plasma such as albumin. In alternative embodiments, samples may be taken from the apical and basal sides for ingredient identification and/or quantification. Common analytical approaches such as high performance liquid chromatography (HPLC), mass spectrometry (MS), gas chromatography (GC), LC/MS, or GC/MS may then be used for the identification or quantification of the components present in the physiologically modified composition.
Although the invention may be used to conduct permeability screening in a manner similar to how Caco-2 the industry standard is used, it has a unique and novel application in identifying absorbable active ingredients in natural health products (or natural products or nutraceuticals or botanicals or herbals or dietary supplements) or any products that contain mixtures of ingredients of interest (as marker substances or active ingredients) or botanicals. The idea is as follows. Similar to pharmaceutical development, components are not considered active unless they are absorbed into the blood stream. A number of methods have been developed to measure the activities of botanical extracts; very few have measured the active components, let alone absorbable components that are active. It has been shown time and again that marker components that have in vitro activities are not absorbed. The active ingredient profile determined using in vitro methods is usually erroneous; this is particularly true for the proportion of the ingredients required because the absorption of individual components is potentially different. A good example is the determination of the ingredient profiles of Ginkgo biloba. People think that the ratios of the ingredients in the herb are important (See FIGS. 8, 10, Tables 3, 4, apical side ratios). But it is only the absorbed ingredients that can have activity and not all ingredients are absorbed or absorbed at the same rate. Therefore, the profiles of absorbed ingredients will differ from the profiles of ingredients in the product, and it is the absorbed ingredient profiles that are biologically most relevant. […]

SCBN cells [2] = experiment: TEER of SCBN cell layers in different culture conditions; format: cell-based, human; conditions: SCBN cells on rat-tail collagen, supplemented base medium; day 3 (48 hours after medium change)
Description: FIG. 1: illustrates the TEER values of SCBN cells in different culture conditions. TEER measurement was conducted by using EVOM voltmeter from World Precision Instrument.
TEER values may be assayed using any conventional equipment capable of measuring electrical resistance, such as […] from World Precision Instruments.
(§1) To assay the structure of microvilli and to measure TEER, SCBN cells were cultured with DMEM media supplemented with FBS and collected at 24 hours post confluence. Harvested cells were seeded at the density of 1E5 cells/well in Falcon multiple insert plates (0.31 cm2/well). […] Forty-eight hours after medium change, SCBN cells were processed for SEM examination following conventional SEM sample preparation. Assessments of microvilli structure were made from SEM images.

SCBN cells [3] = experiment: Microvilli structure of SCBN cells by SEM; format: cell-based, human; conditions: SEM 48 hours after medium change; for length of microvilli: 5 μM Ro31-8220 and/or 5 mM sodium butyrate in base medium
Description: as §1

SCBN cells [4] = experiment: Enzyme expression in SCBN cell lysate; format: cell-based, human; conditions: 5 μM Ro 31-8220 alone
Description: FIG. 2: illustrates the expression of enzymes in SCBN cells cultured under culture conditions of the invention. Enzyme activity is expressed as milliunit per mg of protein. One unit equals the digestion of one μmole of substrate per minute at 37° C. AP: Alkaline phosphatase; DPP: dipeptidylpeptidase-IV; APN: aminopeptidase N; APA: aminopeptidase A.
To assay patterns of enzyme expression, SCBN cells were cultured with DMEM media supplemented with FBS and collected at 24 hours post confluence. SCBN cells were seeded with DMEM supplemented with FBS at 1E5 cells/well in non-coated and rat-tail collagen-coated Falcon multiple insert plate. Twenty-four hours after seeding media were change with DMEM supplemented with FBS with DMEM supplemented with FBS in non-coated inert wells whereas the media in rat-tail collagen-coated wells were changed with Kinetana base media supplemented with 5 μM of Ro31-8220 and 5 mM of sodium butyrate. Forty-eight hours after medium change, SCBN cells were lysed with ⅕ strength of Tris buffered saline on ice and the whole cell lysate was assayed for enzyme activity by incubating the cell lysate with specific substrate for 60 minutes at 37° C. […]

[5] = test system: monolayers of the invention (Kinetana cell line); experiment: Permeability across monolayers of the invention; format: in vitro ADME, human
Source text: (§2) (He, Murby et al. 1998) relate the permeability profile of PEG oligomers to tight junction pore size. Their data in CaCo-2 correspond very closely to Kinetana's data with Caco-2, in that there is a steep drop-off in permeability between molecular weights 200 and 450, then a leveling off. The invention permeability, in contrast, declines slowly and continuously from MW 200 to over 1,000 Da (FIG. 3).
(§3) The bioavailability of PEG 900 is reported to be 10% (Yee 1997).

Caco-2 = experiment: Permeability across CaCo-2 monolayers; format: in vitro ADME, human
Source text: as §2, §3

[6] = test system: Kinetana cells using the Buret growth condition; experiment: Permeability in Kinetana cells using the Buret growth condition; format: in vitro ADME, human
Source text: The proprietary growth conditions result in a different paracellular diffusion performance of the Kinetana cell line compared with CaCo-2 and T-84 human colon cancer cell lines (He, Murby et al. 1998) and also SCBN with the Buret condition. The proprietary condition correlates better with human paracellular marker permeability, and this appears to relate to the differences in tight junction pore size between the new method and the others. The evidence for these claims is as follows.
as §3

[7] = Yee 1997; cited from earlier work
[8] = apical side (pre-absorption), six commercial ginkgo extract samples
[9] = basal side (absorbed ingredients), six commercial ginkgo extract samples

## CC(C)(C)[C@]1(O)CC2OC(=O)CC23C(=O)OC2OC(=O)[C@H](O)C231 (some centres unmarked) [Bilobalide]
[1]; [8]
  Ginkgo terpene lactone components ratio to Ginkgolide A, Apical side Mean: 0.66
[1]; [9]
  Ginkgo terpene lactone components ratio to Ginkgolide A, Basal side Mean: 0.44

## C[C@@H]1C(=O)O[C@H]2C[C@@]34[C@H]5C[C@@H](C(C)(C)C)[C@]36[C@@H](OC(=O)[C@@H]6O)O[C@@]4(C(=O)O5)[C@]21O [Ginkgolide A]
[1]; [8]
  Ginkgo terpene lactone components ratio to Ginkgolide A, Apical side Mean: 1.00
[1]; [9]
  Ginkgo terpene lactone components ratio to Ginkgolide A, Basal side Mean: 1.00

## CC1C(=O)OC2C(O)C34C5CC(C(C)(C)C)C36C(OC(=O)C6O)OC4(C(=O)O5)C12O (centres unmarked) [Ginkgolide B]
[1]; [8]
  Ginkgo terpene lactone components ratio to Ginkgolide A, Apical side Mean: 0.20
[1]; [9]
  Ginkgo terpene lactone components ratio to Ginkgolide A, Basal side Mean: 0.12

## Cn1cc(C2=C(c3cn(CCCSC(=N)N)c4ccccc34)C(=O)NC2=O)c2ccccc21 [Ro31-8220, 2-{1-[3-(amidinothio)propyl]-1H-indol-3-yl}-3-(1-meethylindol-3-yl)-maleimide methanesulfonate]
SCBN cells [2]
  TEER value: about 680 ohm.cm^2
SCBN cells [3]
  length of microvilli: did not measurably increase
SCBN cells [3]; compared with base medium
  percentage of cells with long microvilli: did not measurably increase
SCBN cells [4]
  expression of alkaline phosphatase activity: up-regulate

## C[C@@H]1O[C@@H](OC[C@H]2O[C@@H](Oc3c(-c4ccc(O)c(O)c4)oc4cc(O)cc(O)c4c3=O)[C@H](O)[C@@H](O)[C@@H]2O)[C@H](O)[C@H](O)[C@H]1O [Rutin]
[1]; [8]
  Ginkgo intact flavone components ratio to Rutin, Apical Mean: 1.00
[1]; [9]
  Ginkgo intact flavone components ratio to Rutin, basal Mean: 1.00

## CCCC(=O)[O-].[Na+] [sodium butyrate]
SCBN cells [2]
  TEER value: about 175 ohm.cm^2
SCBN cells [3]
  length of microvilli: < 0.1 um

## Ginkgolide C
[1]; [8]
  Ginkgo terpene lactone components ratio to Ginkgolide A, Apical side Mean: 0.32
[1]; [9]
  Ginkgo terpene lactone components ratio to Ginkgolide A, Basal side Mean: 0.20

## Ginkgolide J
[1]
  Ginkgo terpene lactone components ratio to Ginkgolide A, Apical side Mean: 0.86
  Ginkgo terpene lactone components ratio to Ginkgolide A, Basal side Mean: 0.55

## PEG 900
[5]; conditions of the invention
  permeability: ~1 ×10⁻⁶ cm/s
[5]; predicted from permeability under conditions of the invention
  predicted human bioavailability: around 12%
Caco-2
  permeability: too low to be measured
[6]
  permeability: too low to be measured
[7]
  bioavailability (reported): 10%
